Results on ten compounds are retold here after ChEMBL document CHEMBL1201862, “PubChem BioAssay data set” (2004).

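Test compounds were applied to cells in 96-well plates for 48 hours at 5 doses. Here, GI50 denotes the concentration required for 50% inhibition of growth.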 Activity calls are given as the source filed them. No stated cut-off is given here; in the data, active = GI50 up to about 1.1 µM and inactive = higher. Where only a bound is given, the exact number is not on record here.

Test systems include A498; ACHN; BT-549; DU-145; EKVX; HCT-15; HOP-62; HOP-92; HT-29; IGROV-1; LOX IMVI; MDA-N; NCI-H522; OVCAR-8; SN12C; SNB-75; SR; SW-620; U-251; UO-31.
What all share (experiment): growth of human tumour cells (NCI), 48 h

Consider `Oc1ccc([I+]c2ccccc2)cc1O`, for which the GI50 with A498 was > 100 µM (inactive); in the test on ACHN, 36.8 µM (inactive); in the test on BT-549 it was 8.36 µM (inactive); with DU-145, 57.8 µM (inactive); in the test on EKVX it was 53.3 µM (inactive); in the test on HCT-15, 27.7 µM. The GI50 is 34.2 µM (inactive) with HOP-62; 0.0583 µM (active) with HOP-92; 37.4 µM (inactive) in the test with HT-29; 29.7 µM (inactive) in the test on IGROV-1; 30.3 µM (inactive) with LOX IMVI; 35.3 µM (inactive) in the test on MDA-N. The GI50 was 17.8 µM (inactive) in the test with NCI-H522; 53.3 µM (inactive) with OVCAR-8; 40.5 µM (inactive) with SN12C; 95.1 µM (inactive) in the test with SNB-75; 19.1 µM (inactive) in the test on SR; 18.1 µM (inactive) in the test on SW-620. For the same compound, the GI50 was 17.4 µM (inactive) with U-251 and 2.51 µM (inactive) in the test on UO-31.
On to `Nc1ncnc2c1ncn2C1OC(CO)C(O)C(O)C1O` (configuration not stated), for which the GI50 was > 100 µM (inactive) in the test on A498; > 100 µM (inactive) in the test on ACHN; > 100 µM (inactive) in the test with BT-549; > 100 µM (inactive) with DU-145; > 100 µM (inactive) with EKVX; greater than 100 µM in the test on HCT-15. The GI50 in the test with HOP-62, with HOP-92, with HT-29, with IGROV-1, with LOX IMVI and in the test on MDA-N was > 100 µM (inactive) each time. Moreover, the GI50 in the test on NCI-H522, with OVCAR-8, with SN12C, in the test with SNB-75, with SR and in the test with SW-620 was > 100 µM (inactive) throughout. Also, the GI50 with U-251 and with UO-31 was > 100 µM (inactive) throughout.
As for `CCN1C(=O)C(=C/C=C/C=C2/N(C)c3ccccc3C2(C)C)C(=O)N(CC)C1=S`, the GI50 was > 100 µM (inactive) with A498; 53.6 µM (inactive) in the test on ACHN; 13.6 µM (inactive) with BT-549; 64.7 µM (inactive) with DU-145; > 100 µM (inactive) in the test on EKVX; greater than 100 µM in the test on HCT-15. Besides, the GI50 in the test on HOP-62 is 32.5 µM (inactive); in the test with HOP-92, > 100 µM (inactive); with HT-29, 55.6 µM (inactive); with IGROV-1, > 100 µM (inactive); in the test on LOX IMVI, 21.5 µM (inactive); in the test on MDA-N, > 100 µM (inactive). Also, the GI50 was > 100 µM (inactive) in the test with NCI-H522; > 100 µM (inactive) in the test on OVCAR-8; > 100 µM (inactive) in the test with SN12C; > 100 µM (inactive) in the test with SNB-75; > 10 µM (inactive) with SR; > 100 µM (inactive) with SW-620. Also, the GI50 with UO-31 was > 100 µM (inactive).
Regarding `O=c1ccc2c(Cl)cccc2o1`, the GI50 in the test on A498 was > 100 µM (inactive); in the test on ACHN, > 100 µM (inactive); in the test on BT-549 it was > 100 µM (inactive); in the test on DU-145, > 100 µM (inactive); in the test with EKVX it was 58.3 µM (inactive); in the test on HOP-62, > 100 µM (inactive). The GI50 was > 100 µM (inactive) in the test on HOP-92; > 10 µM (inactive) in the test on HT-29; > 100 µM (inactive) in the test on IGROV-1; > 100 µM (inactive) in the test with LOX IMVI; > 100 µM (inactive) in the test with MDA-N; > 100 µM (inactive) with NCI-H522. Also, the GI50 in the test with OVCAR-8, with SN12C, with SNB-75, with SR, in the test on SW-620 and with U-251 was > 100 µM (inactive) in each case. Also, the GI50 with UO-31 is > 100 µM (inactive).
`O=C(O)C(Cc1c[nH]cn1)N1C(=O)c2ccccc2C1=O` (configuration not stated): the GI50 in the test with A498 was > 100 µM (inactive); in the test on ACHN, > 100 µM (inactive); with BT-549, > 100 µM (inactive); in the test with DU-145, > 100 µM (inactive); with EKVX, > 100 µM (inactive); in the test on HCT-15, greater than 100 µM. In addition, the GI50 is 12.9 µM (inactive) with HOP-62; > 100 µM (inactive) with HOP-92; > 100 µM (inactive) with HT-29; > 100 µM (inactive) in the test on IGROV-1; > 100 µM (inactive) with LOX IMVI; > 100 µM (inactive) with MDA-N. Moreover, the GI50 with NCI-H522, in the test on OVCAR-8, in the test with SN12C, in the test on SNB-75, in the test with SR and in the test with SW-620 was > 100 µM (inactive) each time. Also, the GI50 with U-251 and in the test on UO-31 was > 100 µM (inactive) throughout.
Regarding `COc1cc(C2c3cc4c(cc3OC(N3CCOCC3)C2C)OCO4)cc(OC)c1OC` (configuration not stated), the GI50 with A498 is 0.743 µM (active); in the test on ACHN, 3.85 µM (inactive); in the test with BT-549 it was 4.29 µM (inactive); in the test on DU-145, 0.368 µM (active); with EKVX it was 15.8 µM (inactive); with HCT-15, 0.418 µM. For the same compound, the GI50 in the test with HOP-62 was 3.63 µM (inactive); in the test on HOP-92 it was 0.7 µM (active); with HT-29, 0.237 µM (active); with IGROV-1, 1.31 µM (inactive); in the test with LOX IMVI, 1.57 µM (inactive); with MDA-N, 0.148 µM (active). In addition, the GI50 in the test on NCI-H522 is 0.614 µM (active); in the test on OVCAR-8, 1.62 µM (inactive); with SN12C, 4.18 µM (inactive); with SNB-75, 5.19 µM (inactive); in the test on SR, 0.466 µM (active); in the test on SW-620, 0.59 µM (active). Further, the GI50 with U-251 is 0.893 µM (active); with UO-31, 1.86 µM (inactive).
Regarding `COc1cc(COC(=O)N[C@H](C(=O)O)C(C)(C)C)c([N+](=O)[O-])cc1OC`, the GI50 in the test with A498 was > 100 µM (inactive); in the test on ACHN, > 100 µM (inactive); with BT-549, > 100 µM (inactive); with DU-145 it was > 100 µM (inactive); in the test on EKVX, > 100 µM (inactive); in the test on HCT-15, greater than 100 µM. The GI50 in the test with HOP-62, with HOP-92, with HT-29, in the test with IGROV-1, in the test on MDA-N and with OVCAR-8 was > 100 µM (inactive) in each case. For the same compound, the GI50 in the test on SN12C, with SNB-75, in the test on SR, with SW-620, in the test with U-251 and with UO-31 was > 100 µM (inactive) throughout.
On to `COC1(O)C(=O)c2ccccc2OC1(OC)c1ccccc1` (configuration not stated), for which the GI50 in the test on A498 is > 100 µM (inactive); in the test on ACHN, > 100 µM (inactive); in the test on BT-549, > 100 µM (inactive); with DU-145 it was > 100 µM (inactive); with EKVX, > 100 µM (inactive); in the test with HCT-15, 31.8 µM. The GI50 is > 100 µM (inactive) in the test on HOP-62; > 100 µM (inactive) with HOP-92; > 100 µM (inactive) in the test on HT-29; > 100 µM (inactive) with IGROV-1; 65.9 µM (inactive) with LOX IMVI; > 100 µM (inactive) in the test with MDA-N. Further, the GI50 in the test with NCI-H522 is > 100 µM (inactive); in the test with OVCAR-8, > 100 µM (inactive); in the test on SN12C it was > 100 µM (inactive); in the test on SNB-75, > 100 µM (inactive); in the test on SR, 50.4 µM (inactive); in the test with SW-620, > 100 µM (inactive). In addition, the GI50 in the test on U-251 was > 100 µM (inactive).
In the case of `COc1ccc2nc3n(c2c1)C(c1c(F)cccc1Cl)SC3` (configuration not stated), the GI50 in the test on A498 is > 100 µM (inactive); with ACHN, > 100 µM (inactive); in the test on BT-549 it was > 100 µM (inactive); with DU-145 it was > 100 µM (inactive); with EKVX, > 100 µM (inactive); in the test with HCT-15, greater than 100 µM. In addition, the GI50 in the test on HOP-62 is > 100 µM (inactive); in the test with HOP-92 it was 41.8 µM (inactive); in the test on IGROV-1 it was > 100 µM (inactive); with LOX IMVI, > 100 µM (inactive); with MDA-N it was > 100 µM (inactive); with OVCAR-8 it was 46.8 µM (inactive). Also, the GI50 in the test with SN12C, in the test with SNB-75, with SR, with SW-620, in the test with U-251 and in the test with UO-31 was > 100 µM (inactive) each time.
For `COc1ccc(OC)c(NC(=O)c2c(Cl)c(Cl)c(Cl)c(Cl)c2-c2nc3ccccc3[nH]2)c1`, the GI50 in the test with A498 is > 100 µM (inactive); with ACHN, > 100 µM (inactive); in the test on BT-549 it was > 100 µM (inactive); in the test on DU-145, > 100 µM (inactive); in the test on EKVX, > 100 µM (inactive); in the test with HCT-15, greater than 100 µM. The GI50 was > 100 µM (inactive) with HOP-62; > 100 µM (inactive) in the test with HOP-92; > 100 µM (inactive) with HT-29; 89.1 µM (inactive) with IGROV-1; > 100 µM (inactive) in the test on LOX IMVI; > 100 µM (inactive) in the test on MDA-N. In addition, the GI50 in the test on NCI-H522 is > 100 µM (inactive); with OVCAR-8 it was 56.9 µM (inactive); with SN12C, 80.4 µM (inactive); in the test on SNB-75, > 100 µM (inactive); in the test with SR, 52.6 µM (inactive); in the test with SW-620 it was > 100 µM (inactive). Besides, the GI50 with UO-31 is > 100 µM (inactive).
